System: KRAS PDC multicell spheroid viability
Assay: Anticancer human tumor 521955-158-R6-J3-PDC patient-derived pancreatic carcinoma cell line growth inhibition [KRAS2]
Conditions: for IC50: curve of first compound; for viability, T/C: stronger effect = lower value
Method in brief: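 Combination screen of spheroid viability in tumor-cell co-cultures with endothelial (HUVEC) and mesenchymal stem cell stroma. Each agent was tested in half-log dilutions, topping at clinical Cmax or at 10 microM without a known Cmax.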

[1] = second compound 0.1 µM, first compound 0.01 µM
[2] = second compound 0.1 µM, first compound 0.0316 µM
[3] = second compound 0.1 µM, first compound 0.1 µM
[4] = second compound 0.1 µM, first compound 0.316 µM
[5] = second compound 0.1 µM, first compound 1 µM
[6] = second compound 0.1 µM, first compound 3.16 µM
[7] = second compound 0.316 µM, first compound 0.01 µM
[8] = second compound 0.316 µM, first compound 0.0316 µM
[9] = second compound 0.316 µM, first compound 0.1 µM
[10] = second compound 0.316 µM, first compound 0.316 µM
[11] = second compound 0.316 µM, first compound 1 µM
[12] = second compound 0.316 µM, first compound 3.16 µM
[13] = second compound 1 µM, first compound 0.01 µM
[14] = second compound 1 µM, first compound 0.0316 µM
[15] = second compound 1 µM, first compound 0.1 µM
[16] = second compound 1 µM, first compound 0.316 µM
[17] = second compound 1 µM, first compound 1 µM
[18] = second compound 1 µM, first compound 3.16 µM
[19] = second compound 3.16 µM, first compound 0.01 µM
[20] = second compound 3.16 µM, first compound 0.0316 µM
[21] = second compound 3.16 µM, first compound 0.1 µM
[22] = second compound 3.16 µM, first compound 0.316 µM
[23] = second compound 3.16 µM, first compound 1 µM
[24] = second compound 3.16 µM, first compound 3.16 µM
[25] = second compound 10 µM, first compound 0.01 µM
[26] = second compound 10 µM, first compound 0.0316 µM
[27] = second compound 10 µM, first compound 0.1 µM
[28] = second compound 10 µM, first compound 0.316 µM
[29] = second compound 10 µM, first compound 1 µM
[30] = second compound 10 µM, first compound 3.16 µM
[31] = second compound 0.1 µM, first compound 10 µM
[32] = second compound 0.316 µM, first compound 10 µM
[33] = second compound 1 µM, first compound 10 µM
[34] = second compound 3.16 µM, first compound 10 µM
[35] = second compound 10 µM, first compound 10 µM
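Note: drug exposure lasted seven days.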
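Throughout, for viability, T/C: 100% = DMSO vehicle wells and lower means fewer viable cells.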

| Structure (SMILES) | IC50 (second compound 0.1 µM) [µM] | IC50 (second compound 0.316 µM) [µM] | IC50 (second compound 1 µM) [µM] | IC50 (second compound 3.16 µM) [µM] | IC50 (second compound 10 µM) [µM] | viability, T/C [2] [%] | viability, T/C [3] [%] | viability, T/C [4] [%] | viability, T/C [5] [%] | viability, T/C [6] [%] | viability, T/C [8] [%] | viability, T/C [9] [%] | viability, T/C [10] [%] | viability, T/C [11] [%] | viability, T/C [14] [%] | viability, T/C [15] [%] | viability, T/C [20] [%] | viability, T/C [21] [%] | viability, T/C [26] [%] | viability, T/C [27] [%] | other results |
| --- | --- | --- | --- | --- | --- | --- | --- | --- | --- | --- | --- | --- | --- | --- | --- | --- | --- | --- | --- | --- | --- |
| CC1COCCN1c1cc(-c2ccnn2C)c2ccnc(-c3ccn[nH]3)c2n1 (stereo not given) + CC1OCC2(CCN(c3cnc(Sc4ccnc(N)c4Cl)c(N)n3)CC2)C1N | > 3.16 | > 3.16 | > 3.16 | > 3.16 | > 3.16 | 81.1 | 73.9 | 67.6 | 67.3 | 75.2 | 84.5 | 74.6 | 64.3 | 71.2 | 84.8 | 81.4 | 109 | 99.9 | 115 | 90.7 | viability, T/C [1]: 87.9%; viability, T/C [7]: 89.9%; viability, T/C [12]: 64.4%; viability, T/C [13]: 91.9%; viability, T/C [16]: 76.7%; viability, T/C [17]: 68.3%; viability, T/C [18]: 61%; viability, T/C [19]: 102%; viability, T/C [22]: 75.8%; viability, T/C [23]: 67.8%; viability, T/C [24]: 66.6%; viability, T/C [25]: 108%; viability, T/C [28]: 87.6%; viability, T/C [29]: 79.3%; viability, T/C [30]: 64.9% |
| Cn1nccc1Nc1nccc(-c2cc3c(s2)C(C)(C)N(CCN2CCOCC2)C3=O)n1 + CC1OCC2(CCN(c3cnc(Sc4ccnc(N)c4Cl)c(N)n3)CC2)C1N | > 10 | > 10 | 7.94 | 2.83 | 1.51 | 89.8 | 93.9 | 94.2 | 81.2 | 68.4 | 93.9 | 95.5 | 90.3 | 67.4 | 88.4 | 98 | 82.1 | 88.4 | 93.2 | 86.6 | viability, T/C [31]: 62.6%; viability, T/C [12]: 63.7%; viability, T/C [32]: 57.1%; viability, T/C [16]: 82.2%; viability, T/C [17]: 72.2%; viability, T/C [18]: 53.7%; viability, T/C [33]: 49.2%; viability, T/C [22]: 72.7%; viability, T/C [23]: 59.9%; viability, T/C [24]: 47.8%; viability, T/C [34]: 47.7%; viability, T/C [28]: 71.9%; viability, T/C [29]: 53.6%; viability, T/C [30]: 43.4%; viability, T/C [35]: 39.5% |
| CC(=O)OC12COC1CC(O)C1(C)C(=O)C(O)C3=C(C)C(OC(=O)C(O)C(NC(=O)OC(C)(C)C)c4ccccc4)CC(O)(C(OC(=O)c4ccccc4)C21)C3(C)C (stereo not given) + CNCc1ccccc1-c1csc(C(C)Nc2nc(C)nc3cc(OC)c(OC)cc23)c1 | > 3.16 | > 3.16 | > 3.16 | < 0.01 | < 0.01 | 67.6 | 72.9 | 82.2 | 85.6 | 96.1 | 64.7 | 69.9 | 60.6 | 92 | 70.6 | 73.8 | 72.7 | 0.72 | 0.32 | 0.53 | viability, T/C [1]: 68.7%; viability, T/C [7]: 70.4%; viability, T/C [12]: 93.7%; viability, T/C [13]: 75.3%; viability, T/C [16]: 83.6%; viability, T/C [17]: 94.8%; viability, T/C [18]: 98.1%; viability, T/C [19]: 0.42%; viability, T/C [22]: 1.02%; viability, T/C [23]: 3.04%; viability, T/C [24]: 130%; viability, T/C [25]: 1.35%; viability, T/C [28]: 0.88%; viability, T/C [29]: 0.31%; viability, T/C [30]: 0.89% |
| CN(C)C/C=C/C(=O)Nc1cc2c(Nc3ccc(F)c(Cl)c3)ncnc2cc1O[C@H]1CCOC1 + CNCc1ccccc1-c1csc(C(C)Nc2nc(C)nc3cc(OC)c(OC)cc23)c1 | > 0.1 | > 0.1 | > 0.1 | 0.00198 | < 0.000316 | 55 | 53.6 |  |  |  | 58.3 | 56.7 |  |  | 50.8 | 53 | 58.9 | 2.28 | 0.26 | 0.44 | viability, T/C (second compound 0.1 µM, first compound 0.000316 µM): 82.2%; viability, T/C (second compound 0.1 µM, first compound 0.001 µM): 77.5%; viability, T/C (second compound 0.1 µM, first compound 0.00316 µM): 79.8%; viability, T/C [1]: 81.3%; viability, T/C (second compound 0.316 µM, first compound 0.000316 µM): 82.9%; viability, T/C (second compound 0.316 µM, first compound 0.001 µM): 77.8%; viability, T/C (second compound 0.316 µM, first compound 0.00316 µM): 64.8%; viability, T/C [7]: 71.9%; viability, T/C (second compound 1 µM, first compound 0.000316 µM): 98.4%; viability, T/C (second compound 1 µM, first compound 0.001 µM): 68.2%; viability, T/C (second compound 1 µM, first compound 0.00316 µM): 59.1%; viability, T/C [13]: 50.7%; viability, T/C (second compound 3.16 µM, first compound 0.000316 µM): 94.9%; viability, T/C (second compound 3.16 µM, first compound 0.001 µM): 106%; viability, T/C (second compound 3.16 µM, first compound 0.00316 µM): 0.33%; viability, T/C [19]: 0.98%; viability, T/C (second compound 10 µM, first compound 0.000316 µM): 0.34%; viability, T/C (second compound 10 µM, first compound 0.001 µM): 0.24%; viability, T/C (second compound 10 µM, first compound 0.00316 µM): 0.21%; viability, T/C [25]: 0.52% |
| COC(=O)c1ccc2c(C(=Nc3ccc(N(C)C(=O)CN4CCN(C)CC4)cc3)c3ccccc3)c(O)[nH]c2c1 + CNCc1ccccc1-c1csc(C(C)Nc2nc(C)nc3cc(OC)c(OC)cc23)c1 | 3.03 | 1.84 | 3.28 | < 0.0316 | < 0.0316 | 91 | 105 | 120 | 134 | 47.5 | 83.7 | 93.3 | 107 | 120 | 84.1 | 90.1 | 2.05 | 1.85 | 0.42 | 1.27 | viability, T/C [31]: 0.53%; viability, T/C [12]: 5.04%; viability, T/C [32]: 0.18%; viability, T/C [16]: 110%; viability, T/C [17]: 110%; viability, T/C [18]: 51.7%; viability, T/C [33]: 1.19%; viability, T/C [22]: 2.08%; viability, T/C [23]: 1.25%; viability, T/C [24]: 0.14%; viability, T/C [34]: 1.34%; viability, T/C [28]: 0.48%; viability, T/C [29]: 0.14%; viability, T/C [30]: 2.49%; viability, T/C [35]: 0.86% |
| O=C(c1cc(Cc2n[nH]c(=O)c3ccccc23)ccc1F)N1CCN(C(=O)C2CC2)CC1 + CNCc1ccccc1-c1csc(C(C)Nc2nc(C)nc3cc(OC)c(OC)cc23)c1 | > 10 | > 10 | > 10 | < 0.0316 | < 0.0316 | 72.8 | 79.4 | 75.4 | 71.6 | 66.7 | 65.6 | 65.3 | 64.6 | 62 | 61.3 | 68.7 | 1.32 | 3.56 | 0.13 | 0.47 | viability, T/C [31]: 71.9%; viability, T/C [12]: 56.5%; viability, T/C [32]: 66.5%; viability, T/C [16]: 62.8%; viability, T/C [17]: 55%; viability, T/C [18]: 64.3%; viability, T/C [33]: 62.9%; viability, T/C [22]: 0.56%; viability, T/C [23]: 0.32%; viability, T/C [24]: 3.02%; viability, T/C [34]: 0.56%; viability, T/C [28]: 1.37%; viability, T/C [29]: 0.65%; viability, T/C [30]: 0.77%; viability, T/C [35]: 0.19% |

Reference: PubChem BioAssay AID1963864 (Molecular Pharmacology Branch, DTP, NCI, 2024)
